ChEMBL document CHEMBL1201862, “PubChem BioAssay data set” (2004)
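Interpolation was linear, between the two tested concentrations surrounding the appropriate level; five concentrations were tested over 48 hours in 96-well plates. GI50: concentration for 50% inhibition of growth.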 Calls of active or inactive are those of the source. Rule as the data show it: active = GI50 up to about 1.1 µM and inactive = higher.

Columns and labels:
Experiment in all cases: NCI-60 cell line screen, 48 h
A498 = tested on: A498
OVCAR-8 = tested on: OVCAR-8
SK-MEL-2 = tested on: SK-MEL-2
LOX IMVI = tested on: LOX IMVI
MDA-N = tested on: MDA-N
TK-10 = tested on: TK-10
HL-60 = tested on: HL-60
MCF7 = tested on: MCF7
Malme-3M = tested on: Malme-3M
HCT-15 = tested on: HCT-15
NCI-H226 = tested on: NCI-H226
OVCAR-3 = tested on: OVCAR-3
UACC-257 = tested on: UACC-257
NCI-H460 = tested on: NCI-H460
RXF 393 = tested on: RXF 393
M14 = tested on: M14
OVCAR-5 = tested on: OVCAR-5
NCI-H23 = tested on: NCI-H23
RPMI-8226 = tested on: RPMI-8226
HCC 2998 = tested on: HCC 2998

| SMILES | GI50 (A498) | GI50 (OVCAR-8) | GI50 (SK-MEL-2) | GI50 (LOX IMVI) | GI50 (MDA-N) | GI50 (TK-10) | GI50 (HL-60) | GI50 (MCF7) | GI50 (Malme-3M) | GI50 (HCT-15) [µM] | GI50 (NCI-H226) | GI50 (OVCAR-3) | GI50 (UACC-257) | GI50 (NCI-H460) | GI50 (RXF 393) | GI50 (M14) | GI50 (OVCAR-5) | GI50 (NCI-H23) | GI50 (RPMI-8226) | GI50 (HCC 2998) |
| --- | --- | --- | --- | --- | --- | --- | --- | --- | --- | --- | --- | --- | --- | --- | --- | --- | --- | --- | --- | --- |
| OCCCN=C1CCCCC1 | > 100 µM (inactive) | > 100 µM (inactive) | 56.8 µM (inactive) | > 100 µM (inactive) | > 100 µM (inactive) | > 100 µM (inactive) | > 100 µM (inactive) | > 100 µM (inactive) | > 100 µM (inactive) | > 100 | > 100 µM (inactive) | > 100 µM (inactive) | > 100 µM (inactive) | > 100 µM (inactive) | > 100 µM (inactive) | > 100 µM (inactive) | > 100 µM (inactive) | > 100 µM (inactive) | > 100 µM (inactive) | – |
| COc1c(-c2cc(C)c(Cl)c(=O)[nH]2)c(O)c(OC)c2occc12 | – | > 100 µM (inactive) | > 100 µM (inactive) | > 100 µM (inactive) | > 100 µM (inactive) | 42.9 µM (inactive) | > 100 µM (inactive) | > 100 µM (inactive) | > 100 µM (inactive) | > 100 | > 100 µM (inactive) | > 100 µM (inactive) | > 100 µM (inactive) | > 100 µM (inactive) | 52.2 µM (inactive) | > 100 µM (inactive) | > 100 µM (inactive) | > 100 µM (inactive) | > 100 µM (inactive) | > 100 µM (inactive) |
| CCOc1ccc2c(c1)C(/C(C(Cl)=C(Cl)Cl)=[N+](/[O-])OC(=O)c1ccccc1)=N2 | > 100 µM (inactive) | 72.8 µM (inactive) | 85.9 µM (inactive) | 57.9 µM (inactive) | 37 µM (inactive) | 99.3 µM (inactive) | 33.7 µM (inactive) | 39 µM (inactive) | > 100 µM (inactive) | 50.2 | 37.3 µM (inactive) | 30.8 µM (inactive) | 43.2 µM (inactive) | 76 µM (inactive) | 47.8 µM (inactive) | 58.7 µM (inactive) | 76.4 µM (inactive) | 48.6 µM (inactive) | – | 59.2 µM (inactive) |
| O=c1c2ccccc2nc2n1NC(c1c(Cl)cccc1Cl)N2c1cccc(Cl)c1 (stereo not drawn) | – | 3.26 µM (inactive) | 39.1 µM (inactive) | 6.79 µM (inactive) | 5.22 µM (inactive) | 7.69 µM (inactive) | > 100 µM (inactive) | 1.69 µM (inactive) | 8.99 µM (inactive) | 30.3 | 2.56 µM (inactive) | 10.6 µM (inactive) | 25.2 µM (inactive) | 5.13 µM (inactive) | 4.78 µM (inactive) | 7.24 µM (inactive) | 4.54 µM (inactive) | 14.6 µM (inactive) | 4.69 µM (inactive) | 4.42 µM (inactive) |
| O=C(O)c1ccccc1CC1Cc2ccccc2C1=O (stereo not drawn) | – | > 100 µM (inactive) | > 100 µM (inactive) | > 100 µM (inactive) | > 100 µM (inactive) | > 100 µM (inactive) | > 100 µM (inactive) | > 100 µM (inactive) | > 100 µM (inactive) | > 100 | > 100 µM (inactive) | > 100 µM (inactive) | > 100 µM (inactive) | > 100 µM (inactive) | > 100 µM (inactive) | > 100 µM (inactive) | > 100 µM (inactive) | > 100 µM (inactive) | > 100 µM (inactive) | > 100 µM (inactive) |
| COc1ccc(NC(=O)CC(=O)N2N=C(N3CCCCC3)CC2c2ccccc2)cc1 (stereo not drawn) | > 100 µM (inactive) | > 100 µM (inactive) | > 100 µM (inactive) | > 100 µM (inactive) | > 100 µM (inactive) | > 100 µM (inactive) | > 100 µM (inactive) | > 100 µM (inactive) | > 100 µM (inactive) | > 100 | > 100 µM (inactive) | > 100 µM (inactive) | > 100 µM (inactive) | > 100 µM (inactive) | > 100 µM (inactive) | > 100 µM (inactive) | > 100 µM (inactive) | > 100 µM (inactive) | – | > 100 µM (inactive) |
| COC(=O)[C@]1(C)CCC[C@]2(C)[C@H]3CC[C@]4(C(C)C)OO[C@@H](O4)[C@]34O[C@@H]4C[C@H]21 | – | 3.61 µM (inactive) | 14.3 µM (inactive) | 0.35 µM (active) | 2.22 µM (inactive) | 4.88 µM (inactive) | 1.68 µM (inactive) | 2.19 µM (inactive) | 6.68 µM (inactive) | 2.16 | 4.49 µM (inactive) | 1.8 µM (inactive) | 14.9 µM (inactive) | 1.88 µM (inactive) | 4.28 µM (inactive) | 4.8 µM (inactive) | 5.18 µM (inactive) | 6.56 µM (inactive) | 3.44 µM (inactive) | 2.15 µM (inactive) |
